{"source": "paper PMC6934184", "about": "“Selective DNA-PKcs inhibition extends the therapeutic index of localized radiotherapy and chemotherapy” (The Journal of Clinical Investigation, 2019)", "target": "T1, MAP2K1 (MEK1) S218D S222D (Homo sapiens, UniProt Q02750, S218D/S222D)", "T1 construct": "purchased Thermo Fisher Scientific (Life Technologies) SelectScreen", "T1 sequence (Q02750 whole entry S218D/S222D)": "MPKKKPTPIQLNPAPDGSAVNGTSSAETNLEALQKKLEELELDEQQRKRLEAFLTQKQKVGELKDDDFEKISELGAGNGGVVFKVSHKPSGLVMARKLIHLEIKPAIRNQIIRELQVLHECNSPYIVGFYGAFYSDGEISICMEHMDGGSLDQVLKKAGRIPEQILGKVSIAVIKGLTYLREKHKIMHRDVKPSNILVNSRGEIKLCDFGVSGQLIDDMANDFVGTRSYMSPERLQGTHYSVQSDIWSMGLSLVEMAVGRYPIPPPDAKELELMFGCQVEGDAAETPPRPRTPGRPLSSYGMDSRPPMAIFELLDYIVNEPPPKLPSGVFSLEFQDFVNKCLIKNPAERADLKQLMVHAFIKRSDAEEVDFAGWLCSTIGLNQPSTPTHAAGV", "test": "SelectScreen LanthaScreen", "format": "binding", "settings": "read-out: % displacement", "outline": "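SelectScreen broad panel; activity (Z'LYTE, Adapta) plus binding formats. ATP: Km app for CSF1R Z'LYTE; 10 for CAMK1 Adapta. Readout = % per kinase.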", "data": [{"molecule": "CN(C(=O)CN1CCOCC1)c1ccc2sc3c(-c4cccc5c(=O)cc(N6CC7CCC(C6)O7)oc45)cccc3c2c1", "note": "[NU5455]", "values": [{"measurement": "inhibition at 1 µM", "value": -0.1, "unit": "%"}]}]}
